What was measured:
CYP2C19 = CYP2C19 (Homo sapiens, UniProt P33261); experiment: In vitro CYP phenotyping and metabolism study, recombinant CYP2C19; type: in vitro ADME
Method: (§1) Recently, an in vitro cytochrome (CYP) phenotyping and metabolism study was performed.

CYP3A4 = CYP3A4 (Homo sapiens, UniProt P08684); experiment: In vitro CYP phenotyping and metabolism study, recombinant CYP3A4; type: in vitro ADME
Method: as §1

CYP2C8 = target: T1, CYP2C8 (Homo sapiens, UniProt P10632); experiment: In vitro CYP phenotyping and metabolism study, recombinant CYP2C8; type: in vitro ADME
T1 sequence (P10632 1-490): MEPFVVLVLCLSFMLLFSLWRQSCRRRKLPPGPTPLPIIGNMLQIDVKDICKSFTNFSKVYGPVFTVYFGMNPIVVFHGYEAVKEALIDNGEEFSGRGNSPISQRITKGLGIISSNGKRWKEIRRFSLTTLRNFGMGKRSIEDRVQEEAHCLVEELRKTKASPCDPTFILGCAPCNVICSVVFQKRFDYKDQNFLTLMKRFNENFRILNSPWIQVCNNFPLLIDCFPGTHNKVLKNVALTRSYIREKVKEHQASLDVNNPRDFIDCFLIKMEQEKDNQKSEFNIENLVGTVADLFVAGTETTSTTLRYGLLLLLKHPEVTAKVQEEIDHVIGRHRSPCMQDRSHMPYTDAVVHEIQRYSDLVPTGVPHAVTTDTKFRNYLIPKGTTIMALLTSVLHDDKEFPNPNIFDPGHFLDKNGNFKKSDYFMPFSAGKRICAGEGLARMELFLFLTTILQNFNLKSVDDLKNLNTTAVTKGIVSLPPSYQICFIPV
Method: as §1

CYP1A2 = target: T2, CYP1A2 (Homo sapiens, UniProt P05177); experiment: In vitro CYP phenotyping and metabolism study, recombinant CYP1A2; type: in vitro ADME
T2 sequence (P05177 1-516): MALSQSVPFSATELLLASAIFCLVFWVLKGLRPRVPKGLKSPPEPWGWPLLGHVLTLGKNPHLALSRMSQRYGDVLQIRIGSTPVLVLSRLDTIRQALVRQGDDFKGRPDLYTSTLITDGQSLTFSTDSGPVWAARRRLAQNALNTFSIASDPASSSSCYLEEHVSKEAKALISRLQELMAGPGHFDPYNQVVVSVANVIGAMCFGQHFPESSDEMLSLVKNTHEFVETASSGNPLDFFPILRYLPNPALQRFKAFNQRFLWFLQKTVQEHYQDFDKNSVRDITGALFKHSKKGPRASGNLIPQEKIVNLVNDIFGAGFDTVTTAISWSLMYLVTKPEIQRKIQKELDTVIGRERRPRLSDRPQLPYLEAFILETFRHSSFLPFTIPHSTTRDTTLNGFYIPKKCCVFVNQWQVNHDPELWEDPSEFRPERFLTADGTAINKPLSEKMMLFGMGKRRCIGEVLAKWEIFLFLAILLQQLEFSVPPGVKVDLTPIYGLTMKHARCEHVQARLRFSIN
Method: as §1

CYP2D6 = CYP2D6 (Homo sapiens, UniProt P10635); experiment: In vitro CYP phenotyping and metabolism study, recombinant CYP2D6; type: in vitro ADME
Method: as §1

CYP2C9 = CYP2C9 (Homo sapiens, UniProt P11712); experiment: In vitro CYP phenotyping and metabolism study, recombinant CYP2C9; type: in vitro ADME
Method: as §1

plasma protein = settings: cited from earlier work
CYP2B6 = target: T3, CYP2B6 (Homo sapiens, UniProt P20813); experiment: In vitro CYP phenotyping and metabolism study, recombinant CYP2B6; type: in vitro ADME
T3 sequence (P20813 1-491): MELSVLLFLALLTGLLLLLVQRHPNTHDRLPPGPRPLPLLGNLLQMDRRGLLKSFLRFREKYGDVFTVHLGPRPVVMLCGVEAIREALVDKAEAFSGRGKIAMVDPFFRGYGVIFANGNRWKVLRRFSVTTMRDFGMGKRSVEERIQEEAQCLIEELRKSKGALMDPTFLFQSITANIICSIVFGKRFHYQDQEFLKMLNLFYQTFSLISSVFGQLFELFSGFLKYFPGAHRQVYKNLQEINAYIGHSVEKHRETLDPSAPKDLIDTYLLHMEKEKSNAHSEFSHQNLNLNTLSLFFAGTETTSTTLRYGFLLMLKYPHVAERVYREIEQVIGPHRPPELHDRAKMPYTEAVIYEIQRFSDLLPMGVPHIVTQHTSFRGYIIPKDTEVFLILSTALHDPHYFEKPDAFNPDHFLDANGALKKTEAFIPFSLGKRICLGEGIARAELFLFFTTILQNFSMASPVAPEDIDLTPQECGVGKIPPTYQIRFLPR
Method: as §1

[1] = Phase 1 study: safety and tolerability; type: in vivo, human
From the text: Safety was monitored through recording of adverse events (AEs), clinical laboratory evaluations (clinical chemistry, hematology, coagulation parameters, and urinalysis), vital sign measurements, 12-lead electrocardiograms (ECGs), and physical examination findings during the study.
Safety measures for this study included AEs, incidence of laboratory abnormalities (based on hematology, clinical chemistry, coagulation, and urinalysis test results), 12-lead ECG parameters, vital sign measurements, and physical examinations.
All adverse events and observed values from clinical laboratory evaluations, 12-lead ECGs, vital sign measurements, and physical examinations were listed and summarized descriptively. No inferential statistical analyses were planned for the safety data.
The condition of each subject was monitored throughout the study. Any AEs and remedial actions required were recorded. The nature, time of onset, duration, and severity were documented, together with the Investigator's opinion of the relationship to drug administration. Any clinically significant abnormalities found during the course of the study were followed up until they returned to normal or could be clinically explained.

Chain of CYP2C9 (P11712 whole entry): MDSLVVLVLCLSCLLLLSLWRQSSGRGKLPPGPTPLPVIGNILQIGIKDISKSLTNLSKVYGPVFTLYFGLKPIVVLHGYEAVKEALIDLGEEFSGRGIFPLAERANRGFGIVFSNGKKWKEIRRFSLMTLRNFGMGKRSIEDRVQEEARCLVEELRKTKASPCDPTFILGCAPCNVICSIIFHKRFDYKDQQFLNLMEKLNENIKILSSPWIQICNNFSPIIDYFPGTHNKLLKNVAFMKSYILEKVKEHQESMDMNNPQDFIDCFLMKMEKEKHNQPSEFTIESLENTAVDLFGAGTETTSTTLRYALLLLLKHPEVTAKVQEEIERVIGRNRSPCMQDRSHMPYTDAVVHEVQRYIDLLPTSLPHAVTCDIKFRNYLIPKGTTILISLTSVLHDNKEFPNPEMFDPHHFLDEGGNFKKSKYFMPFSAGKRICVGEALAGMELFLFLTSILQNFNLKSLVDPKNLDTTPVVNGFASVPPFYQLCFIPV
Chain of CYP3A4 (P08684 whole entry): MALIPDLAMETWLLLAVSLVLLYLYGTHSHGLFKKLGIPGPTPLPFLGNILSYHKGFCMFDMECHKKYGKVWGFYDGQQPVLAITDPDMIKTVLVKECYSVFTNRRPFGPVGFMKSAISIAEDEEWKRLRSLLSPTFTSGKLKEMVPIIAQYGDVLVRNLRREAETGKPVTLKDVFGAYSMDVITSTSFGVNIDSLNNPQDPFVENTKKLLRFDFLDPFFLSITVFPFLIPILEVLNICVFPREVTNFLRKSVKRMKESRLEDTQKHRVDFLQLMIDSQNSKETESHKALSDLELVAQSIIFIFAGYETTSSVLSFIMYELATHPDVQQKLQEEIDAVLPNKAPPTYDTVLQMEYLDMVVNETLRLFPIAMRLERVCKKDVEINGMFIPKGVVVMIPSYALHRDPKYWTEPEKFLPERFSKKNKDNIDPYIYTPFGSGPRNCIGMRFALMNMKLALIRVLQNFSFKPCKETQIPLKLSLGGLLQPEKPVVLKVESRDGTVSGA
Chain of CYP2D6 (P10635 whole entry): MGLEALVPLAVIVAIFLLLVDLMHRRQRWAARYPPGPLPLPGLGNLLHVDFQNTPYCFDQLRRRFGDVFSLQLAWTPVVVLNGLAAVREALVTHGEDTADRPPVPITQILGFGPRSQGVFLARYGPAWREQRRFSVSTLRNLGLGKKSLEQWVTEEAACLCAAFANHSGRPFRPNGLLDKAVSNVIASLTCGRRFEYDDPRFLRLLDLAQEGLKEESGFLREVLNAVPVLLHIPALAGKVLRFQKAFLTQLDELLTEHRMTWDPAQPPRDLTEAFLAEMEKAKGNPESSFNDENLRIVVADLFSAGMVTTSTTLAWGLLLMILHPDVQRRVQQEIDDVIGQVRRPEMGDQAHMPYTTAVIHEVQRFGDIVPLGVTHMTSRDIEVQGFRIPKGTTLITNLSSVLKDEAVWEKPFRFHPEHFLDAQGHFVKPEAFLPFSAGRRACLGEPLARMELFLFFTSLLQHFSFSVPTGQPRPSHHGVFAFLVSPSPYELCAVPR
Chain of CYP2C19 (P33261 whole entry): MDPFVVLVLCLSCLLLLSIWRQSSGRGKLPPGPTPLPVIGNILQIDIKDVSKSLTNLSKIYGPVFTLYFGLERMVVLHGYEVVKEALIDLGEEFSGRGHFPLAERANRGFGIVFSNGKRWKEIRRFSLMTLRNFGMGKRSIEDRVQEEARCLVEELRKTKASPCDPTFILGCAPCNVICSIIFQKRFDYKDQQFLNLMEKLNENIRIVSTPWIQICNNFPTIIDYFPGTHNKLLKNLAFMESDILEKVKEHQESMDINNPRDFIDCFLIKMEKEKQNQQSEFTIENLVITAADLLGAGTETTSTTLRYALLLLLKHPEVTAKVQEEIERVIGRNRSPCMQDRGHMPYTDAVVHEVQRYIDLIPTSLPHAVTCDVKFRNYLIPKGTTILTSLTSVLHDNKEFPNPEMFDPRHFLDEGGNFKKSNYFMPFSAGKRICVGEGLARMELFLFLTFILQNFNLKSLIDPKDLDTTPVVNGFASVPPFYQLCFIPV

N#CC1(c2ccc(NC(=O)c3cccnc3NCc3ccncc3)cc2)CCCC1 [Rivoceranib, N-[4-(1-cyanocyclopentyl)phenyl]-2-{[(pyridin-4-yl)methyl]amino} pyridine-3-carboxamide]
rivoceranib consumed at 60 minute incubation (CYP2C19; CYP2C19): less than 10%
% Remaining at 60 minute incubation (CYP2C19; Recombinant CYP2C19, 5 μM): 98.9%
CLINT (CYP2C19; Recombinant CYP2C19, 5 μM): 0.057 μL/minunte/mg
half-life at 5 µM (CYP2C19; human, Recombinant CYP2C19, 5 μM, read-out: t½): 8.05 h
rivoceranib consumed at 60 minute incubation (CYP3A4; CYP3A4): more than 60%
% Remaining at 60 minute incubation (CYP3A4; Recombinant CYP3A4, 5 μM): 37.6%
CLINT (CYP3A4; Recombinant CYP3A4, 5 μM): 0.704 μL/minunte/mg
half-life at 5 µM (CYP3A4; human, Recombinant CYP3A4, 5 μM, read-out: t½): 0.657 h
rivoceranib consumed at 60 minute incubation (CYP2C8; CYP2C8): less than 10%
% Remaining at 60 minute incubation (CYP2C8; Recombinant CYP2C8, 5 μM): 103%
CLINT (CYP2C8; Recombinant CYP2C8, 5 μM): 0.037 μL/minunte/mg
half-life at 5 µM (CYP2C8; human, Recombinant CYP2C8, 5 μM, read-out: t½): 12.6 h
rivoceranib consumed at 60 minute incubation (CYP1A2; CYP1A2): less than 10%
% Remaining at 60 minute incubation (CYP1A2; Recombinant CYP1A2, 5 μM): 94.7%
CLINT (CYP1A2; Recombinant CYP1A2, 5 μM): 0.041 μL/minunte/mg
half-life at 5 µM (CYP1A2; human, Recombinant CYP1A2, 5 μM, read-out: t½): 11.2 h
rivoceranib consumed at 60 minute incubation (CYP2D6; CYP2D6): more than 60%
% Remaining at 60 minute incubation (CYP2D6; Recombinant CYP2D6, 5 μM): 34.9%
CLINT (CYP2D6; Recombinant CYP2D6, 5 μM): 0.587 μL/minunte/mg
half-life at 5 µM (CYP2D6; human, Recombinant CYP2D6, 5 μM, read-out: t½): 0.787 h
rivoceranib consumed at 60 minute incubation (CYP2C9; CYP2C9): less than 10%
% Remaining at 60 minute incubation (CYP2C9; Recombinant CYP2C9, 5 μM): 90.3%
CLINT (CYP2C9; Recombinant CYP2C9, 5 μM): 0.119 μL/minunte/mg
half-life at 5 µM (CYP2C9; human, Recombinant CYP2C9, 5 μM, read-out: t½): 3.9 h
plasma protein binding (plasma protein): 97%
rivoceranib consumed at 60 minute incubation (CYP2B6; CYP2B6): less than 10%
% Remaining at 60 minute incubation (CYP2B6; Recombinant CYP2B6, 5 μM): 96.3%
CLINT (CYP2B6; Recombinant CYP2B6, 5 μM): 0.020 μL/minunte/mg
half-life at 5 µM (CYP2B6; human, Recombinant CYP2B6, 5 μM, read-out: t½): 5.73 h
tolerability ([1]; 200 mg single dose (freebase), healthy subjects and subjects with mild and moderate hepatic impairment): well tolerated
subjects with treatment-emergent adverse events (TEAEs) ([1]; 200 mg single dose, 27 subjects overall, both in the Mild hepatic impairment group): 2 (7.4%) subjects
laboratory, ECG, physical examination abnormalities ([1]; 200 mg single dose, all groups): no clinically significant laboratory, ECG, or physical examinations abnormalities
treatment emergent SAEs, TEAEs leading to discontinuation, deaths ([1]; 200 mg single dose, all groups): No treatment emergent serious adverse events (SAEs), TEAEs leading to discontinuation, or deaths

Reference: patent US20260207572A1, “METHODS AND COMPOSITIONS FOR TREATMENT OF SUBJECTS WITH HEPATIC IMPAIRMENTS” (ELEVAR THERAPEUTICS, INC., priority 2022, published 2026)
